The record followed here is PubChem BioAssay (NCI).

Among the test systems are NCI-H226 lung; NCI-H23 lung; UACC-62 melanoma; OVCAR-3 ovarian; A549 NSCLC; COLO 205 colon; SF-295 CNS; SN12C renal.
What all share (assay): DTP human tumour cell line panel, 48 h

The structures appear in SMILES notation. “And” between values parts separate entries of the source, which are not always exact repeats. Identical values can stand only once.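 1) Cells in 96-well plates. 2) Compound, 48 h, 5 concentrations. 3) Linear interpolation between surrounding doses. 4) Unreached endpoint = highest concentration. Here, GI50 denotes the concentration required for 50% inhibition of growth. At the TGI there is no net growth.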 A value given as a limit tells only on which side of the number the result lay.

Consider `CCCC[N+](CCCC)=c1ccc2nc3c(C)cc(N(CC)CC)cc3sc-2c1`, for which the GI50 in the test on NCI-H226 lung is 0.265 µM; in the test on NCI-H23 lung, 0.0601 µM; in the test on UACC-62 melanoma, 0.29 µM; in the test with OVCAR-3 ovarian, 0.12 µM. In addition, the TGI with NCI-H226 lung stood at 1.72 µM; in the test with NCI-H23 lung it was 1.04 µM; with UACC-62 melanoma, 1.77 µM; in the test on OVCAR-3 ovarian, 1.15 µM.

For the compound `Cc1ccc(C)c(NC(=O)NCc2ccc(Cl)cc2)c1`, the TGI in the test on NCI-H226 lung was 98.8 µM; with NCI-H23 lung, over 100 µM; in the test with A549 NSCLC, over 100 µM; in the test with COLO 205 colon, over 100 µM; in the test on UACC-62 melanoma, over 100 µM; in the test with SF-295 CNS, over 100 µM. Also, the TGI in the test on OVCAR-3 ovarian and in the test with SN12C renal was over 100 µM throughout.

Turning to `O=C1C2=Nc3ccccc3C(O)N2c2ccccc21` (stereo unspecified), the TGI in the test with NCI-H226 lung was 77.3 µM; in the test on NCI-H23 lung, 28.8 µM; in the test on A549 NSCLC it was over 100 µM; in the test with COLO 205 colon it was over 100 µM; in the test with UACC-62 melanoma, 12.9 µM; with SF-295 CNS it was over 100 µM. In addition, the TGI in the test on OVCAR-3 ovarian was 56.3 µM; with SN12C renal it was over 100 µM.

Turning to `Oc1c(CN2CCCC2)cc(COCc2ccc(Br)cc2)c2cccnc12`, the GI50 was 1.05 µM in the test with NCI-H226 lung; 0.969 µM with NCI-H23 lung; 0.914 µM with A549 NSCLC; 4.62 µM in the test on COLO 205 colon; 0.343 µM in the test with UACC-62 melanoma; 1.19 µM with SF-295 CNS. Moreover, the GI50 is 0.413 µM in the test on OVCAR-3 ovarian and 0.989 µM in the test with SN12C renal. In addition, the TGI with NCI-H226 lung was 2.96 µM; in the test on NCI-H23 lung it was 3.33 µM; in the test on A549 NSCLC, 9.89 µM; in the test with COLO 205 colon, 18.7 µM; in the test on UACC-62 melanoma it was 1.72 µM; in the test with SF-295 CNS it was 3.98 µM. Besides, the TGI in the test with OVCAR-3 ovarian worked out at 1.87 µM; with SN12C renal, 5.86 µM.

Turning to `Oc1ccc(O)c(-c2cc(-c3ccccc3)nn2-c2ccccc2)c1`, the GI50 is 18.7 µM with NCI-H226 lung; 14.3 µM in the test on NCI-H23 lung; 17.3 µM with A549 NSCLC; 24.9 µM in the test on COLO 205 colon; 11.9 µM in the test with UACC-62 melanoma; 28.5 µM with SF-295 CNS. The GI50 was 22.8 µM with OVCAR-3 ovarian and 17 µM in the test with SN12C renal. The TGI with NCI-H226 lung was 51.4 µM; with NCI-H23 lung, 32.5 µM; in the test with A549 NSCLC, 80.9 µM; in the test with COLO 205 colon it was over 100 µM; in the test with UACC-62 melanoma, 44.9 µM; in the test on SF-295 CNS, over 100 µM. In addition, the TGI in the test with OVCAR-3 ovarian is over 100 µM; with SN12C renal, 45 µM.

On to `CC(=O)OCC(=O)O[C@@H]1C[C@]2(C(C)C)O[C@@]1(C)[C@@H]1CC[C@@H](C)[C@H]1[C@@H]2OC(=O)/C=C/c1ccccc1`, for which the GI50 in the test with NCI-H226 lung was 10.6 µM; with NCI-H23 lung it was 23.7 µM; with A549 NSCLC, 18.5 µM; in the test with COLO 205 colon it was 24.2 µM; in the test with UACC-62 melanoma, 14.1 µM; with SF-295 CNS it was 17 µM. The GI50 is 32.8 µM with OVCAR-3 ovarian and 1.88 µM in the test on SN12C renal. The TGI with NCI-H226 lung is 37.1 µM; in the test on NCI-H23 lung, 99.1 µM; with A549 NSCLC, over 100 µM; in the test with COLO 205 colon, 84.6 µM; in the test with UACC-62 melanoma, 38.3 µM; in the test on SF-295 CNS it was 43.9 µM. For the same compound, the TGI in the test with OVCAR-3 ovarian is over 100 µM; in the test with SN12C renal it was 24.3 µM.

For the compound `Cn1c(O)c(C(/C=C/c2ccccc2)=NCCN=C(/C=C/c2ccccc2)c2c(O)n(C)c(=O)n(C)c2=O)c(=O)n(C)c1=O`, the GI50 in the test with NCI-H226 lung was 24.6 µM; in the test on NCI-H23 lung, 15 µM; in the test on A549 NSCLC, 16.7 µM; in the test with COLO 205 colon it was 17.3 µM; in the test on UACC-62 melanoma, 19.2 µM; in the test on SF-295 CNS, 16.2 µM. For the same compound, the GI50 with OVCAR-3 ovarian is 21 µM; in the test on SN12C renal, 16.5 µM. Moreover, the TGI in the test on NCI-H226 lung, in the test on NCI-H23 lung, with A549 NSCLC, in the test on COLO 205 colon, with UACC-62 melanoma and in the test with SF-295 CNS was over 50 µM in each case. The TGI in the test with OVCAR-3 ovarian and in the test with SN12C renal was over 50 µM in each case.

As to `Cc1cnc(/C=N\NC(N)=S)c2cccc(N)c12`, the GI50 in the test on NCI-H226 lung was 2.39 µM; in the test on NCI-H23 lung, 2.14 µM; in the test with A549 NSCLC, 4.85 µM; in the test on COLO 205 colon, 3.23 µM; with UACC-62 melanoma, 1.13 µM; in the test on SF-295 CNS it was 2.36 µM. The GI50 in the test with OVCAR-3 ovarian is 3.03 µM; in the test with SN12C renal, 1.51 µM. Further, the TGI with NCI-H226 lung was over 100 µM; with NCI-H23 lung it was over 100 µM; in the test with A549 NSCLC it was over 100 µM; with COLO 205 colon, over 100 µM; in the test with UACC-62 melanoma it was 9.26 µM and 6.67 µM; with SF-295 CNS, over 100 µM. The TGI with OVCAR-3 ovarian is over 100 µM; in the test with SN12C renal, > 26.5 µM and 4.35 µM.

Regarding `CN(C)c1ncnc2c1nnn2C1OC(CO)C(O)C1O` (stereo unspecified), the GI50 in the test on NCI-H226 lung is 4.49 µM; in the test on NCI-H23 lung it was 0.399 µM; with A549 NSCLC it was 3.53 µM; in the test on COLO 205 colon it was 0.194 µM; in the test on UACC-62 melanoma, 0.246 µM; with SF-295 CNS, 0.221 µM. In addition, the GI50 with OVCAR-3 ovarian is 0.308 µM; in the test with SN12C renal it was 0.479 µM. Further, the TGI is over 100 µM with NCI-H226 lung; over 63.2 µM with NCI-H23 lung; over 100 µM in the test with A549 NSCLC; 0.769 µM with COLO 205 colon; 1.55 µM with UACC-62 melanoma; over 58.3 µM in the test on SF-295 CNS. Besides, the TGI in the test with OVCAR-3 ovarian was 2.46 µM; in the test with SN12C renal it was over 100 µM.

In the case of `COc1cccc2c1-c1c(c3ccc([N+](=O)[O-])cc3c(=O)n1CCCCl)C2=O`, the GI50 in the test with NCI-H226 lung was 5.82 µM; with NCI-H23 lung, 24.4 µM; in the test on A549 NSCLC, over 50 µM; in the test on COLO 205 colon, over 50 µM; in the test on UACC-62 melanoma, 2.42 µM; with SF-295 CNS, 1.82 µM. Besides, the GI50 with OVCAR-3 ovarian was over 50 µM; in the test with SN12C renal, 15.8 µM. Besides, the TGI in the test on NCI-H226 lung is 41.5 µM; in the test with NCI-H23 lung, over 50 µM; with A549 NSCLC, over 50 µM; in the test on COLO 205 colon it was over 50 µM; in the test with UACC-62 melanoma it was 18.8 µM; in the test on SF-295 CNS, over 50 µM. The TGI with OVCAR-3 ovarian and in the test on SN12C renal was over 50 µM throughout.
